According to patent publication US9839642B2, “Beta-tetrazolyl-propionic acids as metallo-beta-lactamase inhibitors” (priority 2014, dated 2017):
Like-named read-outs stand apart in the source and are kept apart here.

Experiments:
IMP-1 = IMP-1 (Serratia marcescens, UniProt P52699); assay: Enzyme activity: determination of IC50, fluorescence assay with CCF2-FA substrate; format: biochemical; settings: CCF2-FA 1.25 μM, 2 hours at 25° C., read-out: IMP1 IC50
How it was run: (§1)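 100 mM KH2PO4 pH 7 + 0.005% Tween-20 + 10 μM ZnSO4; CCF2-FA 1.25 μM; NDM-1 1 pM, IMP-1 2 pM, VIM-1 30 pM; cpd 20–0.00063 μM final, DMSO 1:50. 2 h, 25° C. Ex 405/em 460 nm; IC50, 4-param fit.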

NDM-1 = NDM-1 (Klebsiella pneumoniae, UniProt C7C422); assay: as above; format: biochemical; settings: CCF2-FA 1.25 μM, 2 hours at 25° C., read-out: NDM1 IC50
Chain of NDM-1 (C7C422 29-270, looked up, species assumed): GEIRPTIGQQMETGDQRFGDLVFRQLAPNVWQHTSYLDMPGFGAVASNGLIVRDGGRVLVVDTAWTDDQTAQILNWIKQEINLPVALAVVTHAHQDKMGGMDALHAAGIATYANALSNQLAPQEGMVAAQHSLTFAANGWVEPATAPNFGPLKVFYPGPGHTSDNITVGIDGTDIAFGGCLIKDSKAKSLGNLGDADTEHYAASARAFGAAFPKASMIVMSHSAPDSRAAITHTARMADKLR
How it was run: as §1

VIM-1 = VIM-1 (Pseudomonas aeruginosa, UniProt A0A0F7KYQ8); assay: as above; format: biochemical; settings: CCF2-FA 1.25 μM, 2 hours at 25° C., read-out: VIM1 IC50
How it was run: as §1

[1] = tested on: Escherichia coli expressing NDM-1 (CLB30005); assay: Antibiotic potentiation activity: synergistic concentration (MITC95) with imipenem, growth by OD600; format: cell-based
How it was run: (§2)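 MITC95 = lowest inhibitor concentration giving 95% growth inhibition, read by absorbance after 22–24 h at 35° C. Compound range 200 μM to 0.195 μM, imipenem fixed at 1 or 4 μg/ml, bacteria in 1.1×CAMHB from saline suspension diluted 1:100.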

[2] = tested on: Escherichia coli expressing NDM-1 (CLB30016); assay: as above; format: cell-based; settings: 95% inhibition of bacterial growth, strain CLB30016
How it was run: as §2

[3] = tested on: Klebsiella pneumoniae expressing VIM-1 (IHMA599644); assay: as above; format: cell-based
How it was run: as §2

[4] = tested on: Serratia marcescens expressing IMP-1 (CL5741); assay: as above; format: cell-based
How it was run: as §2

[5] = 95% inhibition of bacterial growth, strain CLB30005
[6] = 95% inhibition of bacterial growth, strain IHMA599644
[7] = 95% inhibition of bacterial growth, strain CL5741
[8] = E. coli CLB30005 (NDM-1), 95% inhibition of growth
[9] = K. pneumoniae IHMA599644 (VIM-1), 95% inhibition of growth
[10] = S. marcescens CL5741 (IMP-1), 95% inhibition of growth

Chain of IMP-1 (P52699 19-246, looked up, species assumed): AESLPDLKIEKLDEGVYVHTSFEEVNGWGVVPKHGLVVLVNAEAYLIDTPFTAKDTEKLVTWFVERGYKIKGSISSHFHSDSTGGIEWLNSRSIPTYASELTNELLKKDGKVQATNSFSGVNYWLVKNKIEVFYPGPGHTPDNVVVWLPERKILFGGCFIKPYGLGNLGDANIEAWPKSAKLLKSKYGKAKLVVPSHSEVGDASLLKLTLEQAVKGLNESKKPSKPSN

SMILES | IC50 (IMP-1; enzyme 2 pM) [nM] | IC50 (NDM-1; enzyme 1 pM) [nM] | IC50 (VIM-1; enzyme 30 pM) [nM] | NDM1 EC30005 MITC95 [1, 5] [µM] | NDM1 EC30016 MITC95 [2] [µM] | VIM1 KP599644 MITC95 [3, 6] [µM] | IMP1 SM5741 MITC95 [4, 7] [µM] | IC50 (IMP-1; IMP-1 enzyme 2 pM) [nM] | IC50 (NDM-1; NDM-1 enzyme 1 pM) [nM] | IC50 (VIM-1; VIM-1 enzyme 30 pM) [nM] | NDM1 EC30005 MITC95 [1, 8] [µM] | VIM1 KP599644 MITC95 [3, 9] [µM] | IMP1 SM5741 MITC95 [4, 10] [µM]
CCC[C@H](C(=O)O)[C@H](Cc1ccc(-c2ccc(N3CCNCC3)nc2)cc1)c1nn[nH]n1 [Example 199, (2S)-2-[(1S)-2-[4-(6-piperazin-1-ylpyridin-3-yl)phenyl]-1-(2H-tetrazol-5-yl)ethyl]pentanoic acid] | 110 | 48 | 7.4 | 4.7 | 9.4 | 31 | 17 | – | – | – | – | – | –
CCC[C@H](C(=O)O)[C@H](Cc1ccc(-c2ccc(CN)cc2)cc1)c1nn[nH]n1 [Example 209, (2S)-2-[(1S)-2-[4′-(aminomethyl)biphenyl-4-yl]-1-(2H-tetrazol-5-yl)ethyl]pentanoic acid] | 110 | 84 | 14 | 2.3 | 6.2 | 12.5 | 4.3 | – | – | – | – | – | –
CCC[C@H](C(=O)O)[C@H](Cc1ccc(-c2cnc(C)c(C)n2)cc1)c1nnn[nH]1 [Example 244, (2S)-2-[(1S)-2-[4-(5,6-dimethylpyrazin-2-yl)phenyl]-1-(1H-tetrazol-5-yl)ethyl]pentanoic acid] | – | – | – | – | – | – | – | 250 | 66 | 4.8 | 9.4 | 38 | 25
CCC[C@H](C(=O)O)[C@H](Cc1ccc(-c2ccc3c(c2)CNC3)cc1)c1nnn[nH]1 [Example 245, (2S)-2-[(1S)-2-[4-(2,3-dihydro-1H-isoindol-5-yl)phenyl]-1-(1H-tetrazol-5-yl)ethyl]pentanoic acid] | – | – | – | – | – | – | – | 85 | 57 | 3.7 | 9.4 | 25 | 6.2
CCC[C@H](C(=O)O)[C@H](Cc1ccc(-c2ccc(-c3nnn[nH]3)cc2)cc1)c1nnn[nH]1 [Example 246, (2S)-2-{(1S)-1-(1H-tetrazol-5-yl)-2-[4′-(1H-tetrazol-5-yl)biphenyl-4-yl]ethyl}pentanoic acid] | – | – | – | – | – | – | – | 9.7 | 1.1 | 2.2 | 38 | 100 | 6.2
CCC[C@H](C(=O)O)[C@H](Cc1ccc(-c2cnc3[nH]c(=O)[nH]c3c2)cc1)c1nnn[nH]1 [Example 247, (2S)-2-[(1S)-2-[4-(2-oxo-2,3-dihydro-1H-imidazo[4,5-b]pyridin-6-yl)phenyl]-1-(1H-tetrazol-5-yl)ethyl]pentanoic acid] | – | – | – | – | – | – | – | 92 | 13 | 0.64 | 31 | 100 | 16
CCC[C@@H](C(=O)O)[C@H](Cc1ccc(-c2ccc3nnn(C)c3c2)cc1)c1nnn[nH]1 [Example 248, (2R)-2-[(1S)-2-[4-(1-methyl-1H-benzotriazol-6-yl)phenyl]-1-(1H-tetrazol-5-yl)ethyl]pentanoic acid] | – | – | – | – | – | – | – | 4700 | 700 | 230 | 100 | >200 | >200
CCC[C@H](C(=O)O)[C@H](Cc1ccc(-c2cnc(CO)s2)cc1)c1nnn[nH]1 [Example 249] | – | – | – | – | – | – | – | 46 | 8.4 | 1.9 | 100 | 100 | >200
CCC[C@H](C(=O)O)[C@H](Cc1ccc(-c2cnn(Cc3ccncc3)c2)cc1)c1nnn[nH]1 [Example 250, (2S)-2-[(1S)-2-{4-[1-(pyridin-4-ylmethyl)-1H-pyrazol-4-yl]phenyl}-1-(1H-tetrazol-5-yl)ethyl]pentanoic acid] | – | – | – | – | – | – | – | 82 | 9.6 | 7.5 | 25 | >200 | 200
CCC[C@H](C(=O)O)[C@H](Cc1ccc(CN2CCN(C)CC2)cc1)c1nn[nH]n1 [Example 251, (2S)-2-[(1S)-2-{4-[(4-methylpiperazin-1-yl)methyl]phenyl}-1-(2H-tetrazol-5-yl)ethyl]pentanoic acid] | – | – | – | – | – | – | – | 1300 | 330 | 430 | 8.3 | 75 | 38
CCC[C@H](C(=O)O)[C@H](Cc1ccc(COCCN2CCOCC2)cc1)c1nn[nH]n1 [Example 252, (2S)-2-[(1S)-2-{4-[(2-morpholin-4-ylethoxy)methyl]phenyl}-1-(2H-tetrazol-5-yl)ethyl]pentanoic acid] | – | – | – | – | – | – | – | 800 | 180 | 89 | 15 | 50 | 150
CCC[C@H](C(=O)O)[C@H](Cc1ccc(CCN2CCCC2=O)cc1)c1nn[nH]n1 [Example 253, (2S)-2-[(1S)-2-{4-[2-(2-oxopyrrolidin-1-yl)ethyl]phenyl}-1-(2H-tetrazol-5-yl)ethyl]pentanoic acid] | – | – | – | – | – | – | – | 97 | 34 | 9.1 | 12.5 | 50 | 38
CCC[C@H](C(=O)O)[C@H](Cc1ccc(CCCO)cc1)c1nn[nH]n1 [Example 254, (2S)-2-[(1S)-2-[4-(3-hydroxypropyl)phenyl]-1-(2H-tetrazol-5-yl)ethyl]pentanoic acid] | – | – | – | – | – | – | – | 180 | 37 | 9 | 5.2 | 25 | 31
CCC[C@H](C(=O)O)[C@H](Cc1ccc(CCC(O)CO)cc1)c1nn[nH]n1 (stereo partly drawn) [Example 255, (2S)-2-[(1S)-2-[4-(3,4-dihydroxybutyl)phenyl]-1-(2H-tetrazol-5-yl)ethyl]pentanoic acid] | – | – | – | – | – | – | – | 190 | 44 | 12 | 10.4 | 50 | 18.8
CCC[C@H](C(=O)O)[C@H](Cc1ccc(CCN2CCCCC2=O)cc1)c1nn[nH]n1 [Example 256, (2S)-2-[(1S)-2-{4-[2-(2-oxopiperidin-1-yl)ethyl]phenyl}-1-(2H-tetrazol-5-yl)ethyl]pentanoic acid] | – | – | – | – | – | – | – | 45 | 27 | 16 | 10.4 | 150 | 6.2
CCC[C@H](C(=O)O)[C@H](Cc1ccc(C[C@@H]2CCCOC2)cc1)c1nn[nH]n1 [Example 257, (2S)-2-[(1S)-2-{4-[(3S)-tetrahydro-2H-pyran-3-ylmethyl]phenyl}-1-(2H-tetrazol-5-yl)ethyl]pentanoic acid] | – | – | – | – | – | – | – | 33 | 13 | 14 | 7.3 | 200 | 6.2
